The IC50 is the midpoint of a concentration-inhibition curve.

In one test the test system is HeLa. Put plainly: Cytotoxicity against human HeLa cells assessed as inhibition of cell growth incubated for 72 hrs by resazurin dye based assay. It is filed as functional.
In test [1] the target is T1, Tubulin (Homo sapiens) (UniProt P68371+Q9H4B7+P0DPH7+P68366+Q13509+Q71U36+P04350+Q3ZCM7+P07437+P68363+Q9BQE3+Q6PEY2+Q13885+Q9BVA1+Q9BUF5). The test can be described thus: Disruption of microtubules in human HMF3A cells at 5 uM measured after 1 hr by immunostaining based confocal microscopic analysis. It is filed as cell-based.
The target of test [2] is T1, Tubulin (Homo sapiens). The test can be described thus: Disruption of microtubules in human HMF3A cells assessed as increase in cell size at 5 uM measured after 4 hrs by immunostaining based confocal microscopic analysis.
For test [3], the target named is T1, Tubulin (Homo sapiens). Put plainly: Disruption of microtubules in human HMF3A cells assessed as increase in nucleus size at 5 uM measured after 4 hrs by immunostaining based confocal microscopic analysis. It is filed as cell-based.

The source made the active and inactive calls. No cut-off for these calls is given here.

As to `COC(=O)c1ccc2[nH]c(NCc3ccco3)nc2c1`, the IC50 in the test with HeLa is 7 µM.
The same measure, in the same setting: next, `FC(F)(F)c1ccc2[nH]c(NCc3ccco3)nc2c1`: 9.9 µM; `Cc1ccc(CNc2nc3ccccc3[nH]2)o1`: 22.3 µM.
Regarding `COc1ccc2[nH]c(NCc3ccco3)nc2c1`, the IC50 in the test on HeLa was 10.1 µM.
On to `c1ccc(Oc2ccc3[nH]c(NCc4ccco4)nc3c2)cc1`, for which the IC50 in the test with HeLa was found to be 0.94 µM. Further, the outcome at Tubulin (Homo sapiens) [1], at Tubulin (Homo sapiens) [2] and at Tubulin (Homo sapiens) [3] was Active.
With `c1coc(CNc2nc3ccccc3[nH]2)c1`, in the test with HeLa, the half-inhibitory concentration (IC50) turned out to be 54 µM.
On the same count and under the same terms, the value for `Cc1ccc2[nH]c(NCc3ccco3)nc2c1` was 5.6 µM; that for `N#Cc1ccc2[nH]c(NCc3ccco3)nc2c1` was more than 80 µM; that for `Clc1ccc2[nH]c(NCc3ccco3)nc2c1` was 4.5 µM.

The record behind these values is ChEMBL document CHEMBL5104165, “Novel fragment-derived colchicine-site binders as microtubule-destabilizing agents” (Eur J Med Chem, 2022).
